Assay results: patent publication US20150110723A1, “QUINAZOLINE DERIVATIVES, COMPOSITIONS, AND USES RELATED THERETO” (EMORY UNIVERSITY, priority 2012, published 2015)

What was measured:
human Myeloperoxidase = molecular target: T1, human Myeloperoxidase (Homo sapiens, UniProt P05164); test: Amplex Red assay of purified MPO activity; type: biochemical; conditions: isolated purified human MPO, hydrogen peroxide as substrate
T1 sequence (P05164 49-745): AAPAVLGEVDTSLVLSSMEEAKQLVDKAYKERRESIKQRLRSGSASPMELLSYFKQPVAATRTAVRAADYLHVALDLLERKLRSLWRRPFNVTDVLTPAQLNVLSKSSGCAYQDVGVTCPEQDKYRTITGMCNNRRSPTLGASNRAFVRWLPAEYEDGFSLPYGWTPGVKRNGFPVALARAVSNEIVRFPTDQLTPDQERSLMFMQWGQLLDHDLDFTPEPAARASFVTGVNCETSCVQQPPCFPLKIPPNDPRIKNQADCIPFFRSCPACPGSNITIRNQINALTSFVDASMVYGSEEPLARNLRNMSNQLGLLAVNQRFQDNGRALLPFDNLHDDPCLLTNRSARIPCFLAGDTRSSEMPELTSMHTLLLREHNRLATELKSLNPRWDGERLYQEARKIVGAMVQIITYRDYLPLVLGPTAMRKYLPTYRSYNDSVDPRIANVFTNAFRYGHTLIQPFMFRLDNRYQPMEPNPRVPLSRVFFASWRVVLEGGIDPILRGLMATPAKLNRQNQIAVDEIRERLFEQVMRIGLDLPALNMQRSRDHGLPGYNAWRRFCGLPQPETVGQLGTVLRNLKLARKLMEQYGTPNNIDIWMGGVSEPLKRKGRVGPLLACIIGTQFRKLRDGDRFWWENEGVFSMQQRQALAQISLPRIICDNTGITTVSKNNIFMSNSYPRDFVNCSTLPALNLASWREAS
Experimental: In Table 2, isolated, purified human Myeloperoxidase was used in an enzyme assay system including hydrogen peroxide as substrate and Amplex Red to measure MPO enzymatic activity.
Purified human MPO is mixed with the detector molecule Amplex Red (10-acetyl-3,7-dihydroxyphenoxazine) which increases fluorescence at 590 nm) Hydrogen peroxide is added to initiate the reaction and fluorescence is monitored.

Nox2/MPO System = test: L-012 cell-free assay of Nox2/MPO activity (human neutrophil plasma membranes plus recombinant p47phox, p67phox, Rac1Q61L); type: biochemical; conditions: for IC50: read-out: L-012 Assay IC50 μM ± SEM; for Inhibition of ROS from neutrophil membranes assayed by L-012 (figure legend): cell-free L-012 assay, FIG. 1 / FIG. 2
Experimental: In Table 1 a cell-free semi-recombinant system (consisting of isolated plasma membranes from human neutrophils as a source for Nox2-p22phox and MPO), supplemented with recombinant p47phox, p67phox and Rac1Q61L (activated Rac), expressed in and isolated from of E. coli. L-012 luminescence was used as a readout to monitor enzymatic activity that monitors the combined enzymatic activity of both the Nox2 system and MPO.
Plasma membranes were prepared from human neutrophils. […]. Membranes were stored at −80 C until use. Membranes are mixed with recombinant, purified cytosolic regulatory proteins (p67Np47 chimera, and constitutively active Rac1 mutant Q61) and FAD, along with varying concentrations of compound, and L-012, which luminesces when it reacts with ROS derived either from Nox2 or from MPO. The reaction is initiated by addition of NADPH and SDS (an artificial activatyor for Nox2). See Curnutte et al., (1987) J. Biol. Chem. 262: 6450-6452.

Nox2 = molecular target: T2, Nox2 (Homo sapiens, UniProt P04839); test: Cytochrome c reduction assay for superoxide in activated human neutrophils; type: cell-based; conditions: for IC50: isolated human neutrophils, PMA-activated, absorbance at 550 nm
T2 construct: superoxide originates from the endogenous Nox2 enzyme system; endogenous in cells; host or cells: isolated human neutrophils, PMA-stimulated
T2 sequence (P04839 2-570 limits assumed): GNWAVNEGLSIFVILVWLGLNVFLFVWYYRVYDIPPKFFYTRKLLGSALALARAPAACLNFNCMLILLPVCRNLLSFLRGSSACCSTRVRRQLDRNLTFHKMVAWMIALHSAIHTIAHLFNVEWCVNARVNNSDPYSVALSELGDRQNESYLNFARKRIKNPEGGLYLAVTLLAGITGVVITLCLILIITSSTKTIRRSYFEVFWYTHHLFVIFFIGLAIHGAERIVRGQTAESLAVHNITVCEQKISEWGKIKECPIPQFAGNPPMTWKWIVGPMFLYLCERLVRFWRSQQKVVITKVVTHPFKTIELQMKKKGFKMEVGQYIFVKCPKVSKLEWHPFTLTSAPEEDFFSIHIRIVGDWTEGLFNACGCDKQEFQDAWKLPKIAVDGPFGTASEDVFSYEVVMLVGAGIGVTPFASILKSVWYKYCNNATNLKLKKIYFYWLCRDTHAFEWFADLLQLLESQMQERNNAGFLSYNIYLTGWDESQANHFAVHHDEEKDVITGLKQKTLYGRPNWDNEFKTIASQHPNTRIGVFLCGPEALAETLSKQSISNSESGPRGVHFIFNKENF
T2 sequence (P13498 2-195 partner limits assumed): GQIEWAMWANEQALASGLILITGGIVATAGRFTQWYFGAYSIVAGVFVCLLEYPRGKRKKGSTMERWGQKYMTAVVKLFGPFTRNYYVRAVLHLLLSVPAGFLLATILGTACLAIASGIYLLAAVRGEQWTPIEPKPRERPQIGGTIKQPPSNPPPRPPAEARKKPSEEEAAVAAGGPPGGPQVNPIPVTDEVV
Experimental: Isolated human neutrophils represent a system in which superoxide originates from the endogenous Nox2 enzyme system, and can be measured using cytochrome c reduction that is inhibitable by added superoxide dismutase. In Table 3, Nox2 activity in isolated human neutrophils was assayed using cytochrome c reduction.
Isolated human neutrophils, which contain large amounts of Nox2 enzyme, are mixed with superoxide detector cytochrome c. Phorbol 12-myristate 13-acetate (PMA) is added at 1 μM final to stimulate Nox2 activation resulting superoxide production; absorbance at 550 nm is monitored.

xanthine oxidase = test: Xanthine/xanthine oxidase-L-012 control (interference) assay; type: biochemical; conditions: L-012 luminescence, FIG. 1 / FIG. 2
Experimental: Two assays are used to rule out interference. In one assay, xanthine oxidase replaces the Nox2 and MPO enzymatic system as the source of ROS. See Ritsick et al. (2007) Free Radic Biol Med 43: 31-8. Xanthine was added to start the reaction and L012 luminescence was recorded. In a control for the luminol assay, exogenous H2O2 is supplied in place of the Nox expressing H2O2-generating cells or enzyme and luminol luminescence is recorded.

[1] = cell-free semi-recombinant system, L-012 luminescence, does not distinguish Nox2 from MPO inhibition

COc1cc2[nH]c(=S)n(CCCCN(C)C)c(=O)c2cc1OC [AS2-30] gave an IC50 (human Myeloperoxidase) of 4 µM.

For CN(C)CCCn1c(=O)[nH]c2ccccc2c1=O [Compound 2b], the “L-012 Assay IC50 μM ± SEM” value (Nox2/MPO System; [1]) was “N•I”.

For CCN(CC)CCCn1c(SCC(=O)Nc2nc(-c3ccc(Br)cc3)cs2)nc2ccccc2c1=O [AS158A], the IC50 (Nox2) was 0.6 µM.

Molecule COC(=O)c1ccc2c(=O)n(N)c(=S)[nH]c2c1 [AS261b] has an IC50 (human Myeloperoxidase) of 1.5 µM.

COCCCn1c(=S)[nH]c2ccccc2c1=O [LY1-21] was tested, and the IC50 (human Myeloperoxidase) was 3 µM.

CC(C)n1c(=S)[nH]c2cc(F)c(F)cc2c1=O [Compound 3l] showed an IC50 (Nox2/MPO System; [1]) of 0.7 ± 0.1 µM.

In the case of CC(Sc1nc2ccccc2c(=O)n1CCCN(C)C)C(=O)Nc1nc(-c2cccc(Br)c2)cs1 (centres unmarked) [TG6-73], the “Inhibition of superoxide production from Nox2 in intact human neutrophils (figure legend)” value (Nox2; cytochrome c reduction, absorbance increase at 550 nm, FIG. 3) is reported as “inhibits superoxide production” and the IC50 (Nox2) is reported as 2 µM.

Work on CN(C)CCCCn1c(SCC(=O)Nc2nc(-c3cccc(Br)c3)cs2)nc2ccccc2c1=O [AS195] yielded an IC50 (Nox2) of 1.5 µM.

For CN(C)CCCn1c(=S)[nH]c2cc(F)c(F)cc2c1=O [TG6-250], the IC50 (human Myeloperoxidase) was 1 µM.

Molecule COc1cc2[nH]c(=S)n(C(C)C)c(=O)c2cc1OC [Compound 3m] has an IC50 (Nox2/MPO System; [1]) of 0.7 ± 0.1 µM.

In the case of O=c1c2ccccc2[nH]c(=S)n1CCN1CCCC1 [TG6-52-2], the IC50 (human Myeloperoxidase) is reported as 1.5 µM.

O=c1c2cc(F)ccc2[nH]c(=S)n1CCc1cnc[nH]1 [LY1-73] gave an IC50 (human Myeloperoxidase) of 1.5 µM.

Work on CCN(CC)CCn1c(=S)[nH]c2ccccc2c1=O [TG6-27-2] yielded an IC50 (human Myeloperoxidase) of 2 µM.

CN(C)CCCCn1c(SCC(=O)Nc2nc(-c3ccc(Br)cc3)cs2)nc2ccccc2c1=O [AS158B] was tested, and the “Effect on control assay with ROS generated from xanthine plus xanthine oxidase” value (xanthine oxidase) was “does not affect control assay”, the “Inhibition of ROS from neutrophil membranes assayed by L-012 (figure legend)” value (Nox2/MPO System) was “inhibits ROS generation” and the IC50 (Nox2) was 3 µM.

CN(C)CCCn1c(SCC(=O)Nc2nc(-c3ccc(Br)cc3)cs2)nc2ccccc2c1=O [AS148A] was tested, and the IC50 (Nox2) was 1 µM.

In the case of CN(C)CCCn1c(=S)[nH]c2ccc(F)cc2c1=O [TG6-248], the IC50 (human Myeloperoxidase) is reported as 2 µM.

In the case of CN(C)CCCn1c(=S)[nH]c2ccccc2c1=O [Compound 2a], the IC50 (Nox2/MPO System; [1]) is reported as 3.3 ± 0.3 µM.

With CN(C)CCCn1c(=S)[nH]c2ccccc2c1=O [TG6-17-2] the IC50 (human Myeloperoxidase) was 1.5 µM.

Molecule O=c1c2ccccc2[nH]c(=S)n1CCc1ccccn1 [Compound 2zzz] has an IC50 (Nox2/MPO System; [1]) of 4 ± 1 µM.

CCn1c(=S)[nH]c2ccc(F)cc2c1=O [Compound 3k] gave an IC50 (Nox2/MPO System; [1]) of 0.7 ± 0.1 µM.

CN1CCN(CCCn2c(=S)[nH]c3ccc(F)cc3c2=O)CC1 [LY1-107N] showed an IC50 (human Myeloperoxidase) of 1 µM.

Molecule O=c1c2ccccc2[nH]c(=S)n1CCc1cnc[nH]1 [LY1-27] has an IC50 (human Myeloperoxidase) of 1 µM.

For CN(C)CCCn1c(=S)[nH]c2ccc(Cl)cc2c1=O [TG6-44], the “Effect on control assay with ROS generated from xanthine plus xanthine oxidase” value (xanthine oxidase) was “does not affect control assay”, the IC50 (human Myeloperoxidase) was 1 µM and the “Inhibition of ROS from neutrophil membranes assayed by L-012 (figure legend)” value (Nox2/MPO System) was “Inhibits ROS activity”. The IC50 (Nox2/MPO System; [1]) was 1.2 ± 0.1 µM.
